From patent US10815244B2, “Isoidide derivatives and methods of making and using same” (Rutgers, the State University of New Jersey, priority 2015, dated 2020)

The molecules below were run against EGFR kinase (Homo sapiens (Human), UniProt P00533) (assay: EGFR kinase activity, luminescent ATP/ADP detection assay). Conditions: purified EGFR kinase, 10 min incubation, luminescence ADP detection.
Sequence of EGFR kinase (P00533 25-1210): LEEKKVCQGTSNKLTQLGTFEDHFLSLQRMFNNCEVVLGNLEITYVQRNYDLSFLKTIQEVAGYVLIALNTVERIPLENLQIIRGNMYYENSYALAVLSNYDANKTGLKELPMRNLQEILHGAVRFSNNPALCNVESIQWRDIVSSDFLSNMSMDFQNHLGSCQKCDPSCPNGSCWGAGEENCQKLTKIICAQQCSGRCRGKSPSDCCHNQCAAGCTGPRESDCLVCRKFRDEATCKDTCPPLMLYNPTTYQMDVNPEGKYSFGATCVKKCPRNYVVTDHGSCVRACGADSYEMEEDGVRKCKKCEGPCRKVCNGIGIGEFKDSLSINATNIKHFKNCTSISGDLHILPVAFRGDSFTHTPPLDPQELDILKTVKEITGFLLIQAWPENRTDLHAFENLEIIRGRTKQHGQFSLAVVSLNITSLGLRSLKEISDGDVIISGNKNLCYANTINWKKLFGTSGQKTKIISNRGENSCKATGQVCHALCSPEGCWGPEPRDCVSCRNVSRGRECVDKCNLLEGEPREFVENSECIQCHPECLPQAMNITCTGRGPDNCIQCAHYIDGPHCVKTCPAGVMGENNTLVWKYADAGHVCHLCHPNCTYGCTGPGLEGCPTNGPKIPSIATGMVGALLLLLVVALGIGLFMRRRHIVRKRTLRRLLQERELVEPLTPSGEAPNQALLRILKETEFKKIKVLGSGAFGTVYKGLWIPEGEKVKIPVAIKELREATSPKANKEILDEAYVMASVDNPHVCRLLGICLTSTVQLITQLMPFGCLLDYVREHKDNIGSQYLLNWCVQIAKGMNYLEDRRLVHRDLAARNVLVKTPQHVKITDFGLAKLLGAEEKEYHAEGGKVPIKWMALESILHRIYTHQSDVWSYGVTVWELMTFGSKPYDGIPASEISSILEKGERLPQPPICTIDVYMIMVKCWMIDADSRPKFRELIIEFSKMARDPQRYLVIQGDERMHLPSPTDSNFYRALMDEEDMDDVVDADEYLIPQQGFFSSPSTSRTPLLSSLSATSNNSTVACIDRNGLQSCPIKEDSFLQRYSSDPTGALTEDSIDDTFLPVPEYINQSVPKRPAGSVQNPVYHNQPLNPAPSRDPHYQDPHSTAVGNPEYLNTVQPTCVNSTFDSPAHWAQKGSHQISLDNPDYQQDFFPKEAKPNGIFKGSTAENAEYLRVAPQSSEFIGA
Assay type: biochemical
Experimental: Example RR: EGFR as a Drug Target Assay Conditions
The IC50s of the compounds on EGFR activity were determined using the Luminescent ATP/ADP detection assay system. Briefly, the assay method measures ADP formed from EGFR kinase activity using luminescence derived from ATP-Luciferase detection system. Purified EGFR kinase was incubated with different concentrations of test compound in the kinase reaction buffer for 10 min. The reaction was stopped by depleting the unused ATP in the kinase reaction buffer using the depletion buffer for 40 min. The levels of ADP generated during the kinase reaction was detected by measuring the luminescence using the Luciferase system.
With `CSc1nccc(Nc2ccc(O[C@H]3CO[C@H]4[C@@H]3OC[C@@H]4O)c(Cl)c2)n1` [Example V, (3S,3aR,6S,6aR)-6-[2-chloro-4-[(2-methylsulfanylpyrimidin-4-yl)amino]phenoxy]-2,3,3a,5,6,6a-hexahydrofuro[3,2-b]furan-3-ol] the “EGFR IC50” value was “Inactive”.
`CC(=O)O[C@H]1CO[C@H]2[C@@H]1OC[C@@H]2Oc1ccc(Nc2ncnc3ccsc23)cc1` [Example Y, [(3S,3aR,6S,6aR)-3-[4-(thieno[3,2-d]pyrimidin-4-ylamino)phenoxy]-2,3,3a,5,6,6a-hexahydrofuro[3,2-b]furan-6-yl] acetate] was tested, and the IC50 was > 1000 nM.
In the case of `COc1cc2ncnc(Nc3ccc(O[C@H]4CO[C@H]5[C@@H]4OC[C@@H]5OC(=O)c4ccccc4)c(Cl)c3)c2cc1OC` [Example DD, [(3S,3aR,6S,6aR)-3-[2-chloro-4-[(6,7-dimethoxyquinazolin-4-yl)amino]phenoxy]-2,3,3a,5,6,6a-hexahydrofuro[3,2-b]furan-6-yl] benzoate], the IC50 is reported as > 100 nM.
For `CC(=O)O[C@H]1CO[C@H]2[C@@H]1OC[C@@H]2Oc1ccnc(NC2CCN(S(C)(=O)=O)CC2)n1` [Example FF, [(3S,3aR,6S,6aR)-3-[2-[(1-methylsulfonyl-4-piperidyl)amino]pyrimidin-4-yl]oxy-2,3,3a,5,6,6a-hexahydrofuro[3,2-b]furan-6-yl] acetate], the “EGFR IC50” value was “Inactive”.
For `COc1cc2ncnc(Nc3ccc(O[C@H]4CO[C@H]5[C@@H]4OC[C@@H]5OC(C)=O)cc3)c2cc1OC` [Example X, [(3S,3aR,6S,6aR)-3-[4-[(6,7-dimethoxyquinazolin-4-yl)amino]phenoxy]-2,3,3a,5,6,6a-hexahydrofuro[3,2-b]furan-6-yl] acetate], the IC50 was > 500 nM.
In the case of `CC(=O)O[C@H]1CO[C@H]2[C@@H]1OC[C@@H]2Oc1ccnc(NC2CCN(C(=O)C(C)(C)C)CC2)n1` [Example HH, [(3S,3aR,6S,6aR)-3-[2-[[1-(2,2-dimethylpropanoyl)-4-piperidyl]amino]pyrimidin-4-yl]oxy-2,3,3a,5,6,6a-hexahydrofuro[3,2-b]furan-6-yl] acetate], the “EGFR IC50” value is reported as “Inactive”.
`CS(=O)(=O)N1CCC(Nc2nccc(O[C@H]3CO[C@H]4[C@@H]3OC[C@@H]4OC(=O)c3ccccc3)n2)CC1` [Example JJ, [(3S,3aR,6S,6aR)-3-[2-[(1-methylsulfonyl-4-piperidyl)amino]pyrimidin-4-yl]oxy-2,3,3a,5,6,6a-hexahydrofuro[3,2-b]furan-6-yl] benzoate] was tested, and the “EGFR IC50” value was “Inactive”.
`CC(=O)O[C@H]1CO[C@H]2[C@@H]1OC[C@@H]2Oc1ccnc(NC2CCN(S(=O)(=O)c3ccc(C)cc3)CC2)n1` [Example GG, [(3S,3aR,6S,6aR)-3-[2-[(1-tolylsulfonyl-4-piperidyl)amino]pyrimidin-4-yl]oxy-2,3,3a,5,6,6a-hexahydrofuro[3,2-b]furan-6-yl] acetate] was tested, and the “EGFR IC50” value was “Inactive”.
For `O[C@H]1CO[C@H]2[C@@H]1OC[C@@H]2Oc1ccc(Nc2ccnc(Nc3ccc(O[C@H]4CO[C@H]5[C@@H]4OC[C@@H]5O)c(Cl)c3)n2)cc1Cl` [Example W, (3S,3aR,6S,6aR)-6-[4-[[2-[4-[[(3S,3aR,6S,6aR)-3-hydroxy-2,3,3a,5,6,6a-hexahydrofuro[3,2-b]furan-6-yl]oxy]-3-chloro-anilino]pyrimidin-4-yl]amino]-2-chloro-phenoxy]-2,3,3a,5,6,6a-hexahydrofuro[3,2-b]furan-3-ol], the “EGFR IC50” value was “Inactive”.
With `COc1cc2ncnc(Nc3ccc(O[C@H]4CO[C@H]5[C@@H]4OC[C@@H]5OCc4ccccc4)cc3)c2cc1OC` [Example Z, N-[4-[[(3S,3aR,6S,6aR)-3-benzyloxy-2,3,3a,5,6,6a-hexahydrofuro[3,2-b]furan-6-yl]oxy]phenyl]-6,7-dimethoxy-quinazolin-4-amine] the IC50 was > 100 nM.
With `CSc1ncc(Br)c(C(=O)O[C@H]2CO[C@H]3[C@@H]2OC[C@@H]3O)n1` [Example KK, [(3S,3aR,6S,6aR)-3-hydroxy-2,3,3a,5,6,6a-hexahydrofuro[3,2-b]furan-6-yl] 5-bromo-2-methylsulfanyl-pyrimidine-4-carboxylate] the “EGFR IC50” value was “Inactive”.
For `O=C(O[C@H]1CO[C@H]2[C@@H]1OC[C@@H]2Oc1ccc(Nc2ncnc3ccsc23)cc1Cl)c1ccccc1` [Example EE, [(3S,3aR,6S,6aR)-3-[2-chloro-4-(thieno[3,2-d]pyrimidin-4-ylamino)phenoxy]-2,3,3a,5,6,6a-hexahydrofuro[3,2-b]furan-6-yl] benzoate], the IC50 was > 500 nM.
`COc1cc2ncnc(Nc3ccc(O[C@H]4CO[C@H]5[C@@H]4OC[C@@H]5OC(C)=O)c(Cl)c3)c2cc1OC` [Example BB, [(3S,3aR,6S,6aR)-3-[2-chloro-4-[(6,7-dimethoxyquinazolin-4-yl)amino]phenoxy]-2,3,3a,5,6,6a-hexahydrofuro[3,2-b]furan-6-yl] acetate] was tested, and the IC50 was > 500 nM.
For `CC(=O)O[C@H]1CO[C@H]2[C@@H]1OC[C@@H]2Oc1ccnc(NCc2ccc(F)cc2)n1` [Example II, [(3S,3aR,6S,6aR)-3-[2-[(4-fluorophenyl)methylamino]pyrimidin-4-yl]oxy-2,3,3a,5,6,6a-hexahydrofuro[3,2-b]furan-6-yl] acetate], the “EGFR IC50” value was “Inactive”.
